From PMC4710668, “Bioactivation of food genotoxicants 5-hydroxymethylfurfural and furfuryl alcohol by sulfotransferases from human, mouse and rat: a comparative study” (Archives of Toxicology, 2014) come the findings set out here.

Molecules are shown by their SMILES. Where only a bound is given, the exact number is not on record here.

What all share (experiment): HMF sulfoconjugation assay
Holding throughout (assay type): biochemical

One experiment addresses T1, hSULT1A3 (Homo sapiens, UniProt P0DMM9).
T1 construct: made in house; host or cells: Salmonella typhimurium TA1538 (cytosolic fraction, not purified)
The method in brief:
(§1)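 Bacterial cytosolic preparations each holding a single recombinant SULT were mixed with PAPS (50 µM) and a range of HMF concentrations, then incubated 30 min at 37 °C. 2-Propanol quenched the reaction, and sulfate ester in the supernatant was measured by tandem mass spectrometry.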

A further experiment deals with T2, hSULT1B1 (Homo sapiens, UniProt O43704).
T2 construct: made in house; host or cells: Salmonella typhimurium TA1538 (cytosolic fraction, not purified)
The method in brief:
as §1

In the next experiment the target is T3, mSult2b1b (Mus musculus, UniProt O35400).
T3 construct: made in house; host or cells: Salmonella typhimurium TA1538 (cytosolic fraction, enzyme not purified)
T3 sequence (O35400 1-338): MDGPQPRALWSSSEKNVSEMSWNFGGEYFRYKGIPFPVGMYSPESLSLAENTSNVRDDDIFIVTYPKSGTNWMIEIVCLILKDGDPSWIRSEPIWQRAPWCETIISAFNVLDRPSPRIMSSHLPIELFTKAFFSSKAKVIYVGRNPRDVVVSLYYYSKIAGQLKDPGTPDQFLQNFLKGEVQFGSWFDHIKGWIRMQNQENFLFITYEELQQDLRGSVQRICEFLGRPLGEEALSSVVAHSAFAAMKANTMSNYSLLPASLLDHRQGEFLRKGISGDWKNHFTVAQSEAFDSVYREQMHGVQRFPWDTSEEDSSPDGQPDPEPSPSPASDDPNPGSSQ
The method in brief: as §1

Another experiment deals with T4, hSULT1A2 (Homo sapiens, UniProt P50226).
T4 construct: made in house; host or cells: Salmonella typhimurium TA1538 (cytosolic fraction, not purified)
The method in brief:
as §1

In another experiment the target is T5, mSult2a1 (Mus musculus, UniProt P52843).
T5 construct: made in house; host or cells: Salmonella typhimurium TA1538 (cytosolic fraction, enzyme not purified)
T5 sequence (P52843 1-285): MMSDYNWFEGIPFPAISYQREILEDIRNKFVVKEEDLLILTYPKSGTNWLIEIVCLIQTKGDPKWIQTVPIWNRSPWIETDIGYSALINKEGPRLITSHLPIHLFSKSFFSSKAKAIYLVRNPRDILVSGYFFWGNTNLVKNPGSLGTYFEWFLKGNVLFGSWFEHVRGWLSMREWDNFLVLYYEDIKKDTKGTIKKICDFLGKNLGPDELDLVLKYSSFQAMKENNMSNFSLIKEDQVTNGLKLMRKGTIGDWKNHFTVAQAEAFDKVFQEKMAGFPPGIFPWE
The method in brief:
as §1

Setting [1] is: HMF sulfoconjugation, Michaelis-Menten fit.

T4 sequence (P50226 whole entry): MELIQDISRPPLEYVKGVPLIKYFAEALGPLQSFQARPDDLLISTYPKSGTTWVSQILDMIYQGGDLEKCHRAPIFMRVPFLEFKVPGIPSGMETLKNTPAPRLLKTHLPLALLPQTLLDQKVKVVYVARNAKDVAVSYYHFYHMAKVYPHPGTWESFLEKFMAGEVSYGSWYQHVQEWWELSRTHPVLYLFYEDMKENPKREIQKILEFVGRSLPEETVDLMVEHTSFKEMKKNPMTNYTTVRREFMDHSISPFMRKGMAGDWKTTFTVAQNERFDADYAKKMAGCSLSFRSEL
T1 sequence (P0DMM9 whole entry): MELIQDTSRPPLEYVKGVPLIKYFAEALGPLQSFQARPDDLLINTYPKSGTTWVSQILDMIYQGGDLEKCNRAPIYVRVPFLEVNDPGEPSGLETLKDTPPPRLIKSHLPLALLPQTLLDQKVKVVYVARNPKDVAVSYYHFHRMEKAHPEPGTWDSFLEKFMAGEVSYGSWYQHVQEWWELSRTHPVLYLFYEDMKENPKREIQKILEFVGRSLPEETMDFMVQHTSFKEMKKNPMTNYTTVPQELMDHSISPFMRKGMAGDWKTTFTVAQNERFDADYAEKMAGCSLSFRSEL
T2 sequence (O43704 whole entry): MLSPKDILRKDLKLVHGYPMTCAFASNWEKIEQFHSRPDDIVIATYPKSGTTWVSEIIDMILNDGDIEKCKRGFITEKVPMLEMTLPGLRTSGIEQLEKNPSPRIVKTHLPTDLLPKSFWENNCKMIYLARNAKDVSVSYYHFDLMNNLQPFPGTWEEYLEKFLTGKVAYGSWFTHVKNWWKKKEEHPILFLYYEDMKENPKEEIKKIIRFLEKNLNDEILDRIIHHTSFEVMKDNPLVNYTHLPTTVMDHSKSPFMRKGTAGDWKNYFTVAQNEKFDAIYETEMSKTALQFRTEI

Regarding `O=Cc1ccc(CO)o1` [HMF, 5-Hydroxymethylfurfural], the Rate of sulfoconjugation was determined as 1.2 ± 0.1 pmol/mg/min on hSULT1A3 (0.1 mM HMF); 12.1 ± 1.5 pmol/mg/min on hSULT1A3 (1 mM HMF); 117 ± 12 pmol/mg/min on hSULT1A3 (10 mM HMF); 406 ± 39 pmol/mg/min at hSULT1A3 (100 mM HMF); 2.0 ± 0.5 pmol/mg/min on hSULT1B1 (0.1 mM HMF); 22.2 ± 5.2 pmol/mg/min on hSULT1B1 (1 mM HMF). For the same compound, the Rate of sulfoconjugation is 133 ± 28 pmol/mg/min on hSULT1B1 (10 mM HMF); 272 ± 49 pmol/mg/min at hSULT1B1 (100 mM HMF); less than 0.5 pmol/mg/min on mSult2b1b (0.1 mM HMF); less than 0.5 pmol/mg/min at mSult2b1b (1 mM HMF); less than 0.5 pmol/mg/min at mSult2b1b (10 mM HMF); less than 0.5 pmol/mg/min on mSult2b1b (100 mM HMF). The Rate of sulfoconjugation on hSULT1A2 (0.1 mM HMF) is listed as less than 0.5 pmol/mg/min; at hSULT1A2 (1 mM HMF), 15.2 ± 4.5 pmol/mg/min; at hSULT1A2 (10 mM HMF) it was 130 ± 53 pmol/mg/min; at hSULT1A2 (100 mM HMF) it was 628 ± 233 pmol/mg/min; at mSult2a1 (0.1 mM HMF), less than 0.5 pmol/mg/min; on mSult2a1 (1 mM HMF) it was 1.3 ± 0.2 pmol/mg/min. Also, the Rate of sulfoconjugation amounted to 9.0 ± 0.9 pmol/mg/min at mSult2a1 (10 mM HMF) and 13.1 ± 1.7 pmol/mg/min on mSult2a1 (100 mM HMF). In addition, the entries for the “K M” value on hSULT1A3 (setting [1]), at hSULT1B1 (setting [1]) and at hSULT1A2 (setting [1]) were 16.7 ± 1.8 mM, 13.3 ± 0.3 mM and 56.5 ± 5.4 mM, respectively.
